The source made the active and inactive calls. The rule behind the calls is not given here.
Key:
HepG2 [1] = assay: cells; format: functional, cell-based; settings: Homo sapiens, HepG2, 48 h
[2] = target: Transforming protein RhoA (Homo sapiens) (UniProt P61586); assay: Inhibition of RhoA activation in human HepG2 cells assessed as decrease of membrane-associated protein level at 10 uM after 24 hrs by Western blot analysis; format: cell-based
[3] = target: Protein kinase C delta type (Homo sapiens) (UniProt Q05655); settings: HepG2, 10 uM
Description: Inhibition of PKCdelta phosphorylation at Ser643 in human HepG2 cells at 10 uM after 1 hr by Western blot analysis

[4] = Cytotoxicity human L02 cells after 48 hrs by WST-8 based CCK8 assay; format: cell-based; settings: L02, 48 h
HepG2 [5] = assay: Growth inhibition of human HepG2 cells at 4 uM after 24 to 72 hrs by WST-8 based CCK8 assay; format: functional, cell-based
HepG2 [6] = assay: Growth inhibition of human HepG2 cells at 16 uM after 24 to 72 hrs by WST-8 based CCK8 assay; format: functional, cell-based
MDA-MB-231 = assay: Growth inhibition human MDA-MB-231 cells after 48 hrs by WST-8 based CCK8 assay; format: functional, cell-based; settings: MDA-MB-231, 48 h
HepG2 [7] = assay: Cell cycle arrest in human HepG2 cells assessed as increase in cytoplasmic Chk1 protein level at 16 uM after 24 hrs by Western blot analysis; format: functional, cell-based
HepG2 [8] = assay: Cytotoxicity against human HepG2 cells assessed as increase in cells with filamentous protrusions at 16 uM after 24 hrs using […] staining by confocal microscopy; format: functional, cell-based
[9] = Growth inhibition human CNE2 cells after 48 hrs by WST-8 based CCK8 assay; format: functional, cell-based; settings: CNE-2, 48 h
[10] = Cell cycle arrest in human L02 cells assessed as effect on cytoplasmic Chk2 protein level at 16 uM after 24 hrs by Western blot analysis; format: ADME, cell-based; settings: l02, 24 h
[11] = Cell cycle arrest in human L02 cells assessed as effect on Chk2 protein level in nucleus at 16 uM after 24 hrs by Western blot analysis; format: ADME, cell-based; settings: l02, 24 h
[12] = target: Transforming protein RhoA (Homo sapiens) (UniProt P61586); assay: Inhibition of RhoA activation in human HepG2 cells assessed as decrease of membrane-associated protein level at 16 uM after 24 hrs by Western blot analysis; format: cell-based
HepG2 [13] = assay: Cytotoxicity against human HepG2 cells assessed as decrease in F-actin staining at 16 uM after 24 hrs using […] staining by confocal microscopy; format: functional, cell-based
[14] = target: Protein kinase C delta type (Homo sapiens) (UniProt Q05655); assay: Inhibition of PKCdelta phosphorylation at Ser643 in human HepG2 cells by Western blot analysis; format: cell-based
[15] = target: Protein kinase C delta type (Homo sapiens) (UniProt Q05655); assay: Inhibition of PKCdelta phosphorylation at Ser643 in human L02 cells by Western blot analysis; format: cell-based
[16] = Cell cycle arrest in human L02 cells assessed as effect on cytoplasmic Chk1 protein level at 16 uM after 24 hrs by Western blot analysis; format: ADME, cell-based; settings: l02, 24 h
[17] = target: Transforming protein RhoA (Homo sapiens) (UniProt P61586); assay: Inhibition of RhoA activation in human L02 cells assessed as decrease of membrane-associated protein level at 16 uM after 24 hrs by Western blot analysis; format: cell-based
HepG2 [18] = assay: Cell cycle arrest in human HepG2 cells assessed as effect on cytoplasmic Chk2 protein level at 16 uM after 24 hrs by Western blot analysis; format: functional, cell-based
HepG2 [19] = assay: Induction of apoptosis in human HepG2 cells at 16 uM after 24 hrs using propidium iodide staining by flow cytometry; format: functional, cell-based
[20] = target: PKC alpha and beta-2 (Homo sapiens) (UniProt P17252+P05771); assay: Inhibition of PKCalpha/beta2 phosphorylation at Thr 638/641 in human HepG2 cells by Western blot analysis; format: cell-based
HepG2 [21] = assay: Cell cycle arrest in human HepG2 cells assessed as accumulation at G2/M phase at 16 uM after 24 hrs using propidium iodide staining by flow cytometry (reference value: 6.9 %); format: functional
HeLa = assay: Growth inhibition human HeLa cells after 48 hrs by WST-8 based CCK8 assay; format: functional, cell-based
HepG2 [22] = assay: Cell cycle arrest in human HepG2 cells assessed as decrease in Chk1 protein level in nucleus at 16 uM after 24 hrs by Western blot analysis; format: functional, cell-based
HepG2 [23] = assay: Cell cycle arrest in human HepG2 cells assessed as accumulation at G0/G1 phase at 16 uM after 24 hrs using propidium iodide staining by flow cytometry (reference value: 71.5 %); format: functional
HepG2 [24] = assay: Cell cycle arrest in human HepG2 cells assessed as accumulation at S phase at 16 uM after 24 hrs using propidium iodide staining by flow cytometry (reference value: 21.6 %); format: functional
[25] = target: Protein kinase C delta type (Homo sapiens) (UniProt Q05655); assay: Inhibition of PKCdelta phosphorylation at Thr505 in human L02 cells by Western blot analysis; format: cell-based
T98G = assay: Growth inhibition human T98G cells after 48 hrs by WST-8 based CCK8 assay; format: cell-based
[26] = target: Protein kinase C iota type/zeta type (Homo sapiens) (UniProt P41743+Q05513); assay: Inhibition of PKCzeta/lambda phosphorylation at Thr410/403 in human HepG2 cells by Western blot analysis; format: cell-based
HepG2 [27] = assay: Cell cycle arrest in human HepG2 cells assessed as effect on Chk2 protein level in nucleus at 16 uM after 24 hrs by Western blot analysis; format: functional, cell-based
[28] = Cell cycle arrest in human L02 cells assessed as effect on Chk1 protein level in nucleus at 16 uM after 24 hrs by Western blot analysis; format: ADME, cell-based; settings: l02, 24 h

Chain of Protein kinase C delta type (Homo sapiens) (Q05655 whole entry, looked up): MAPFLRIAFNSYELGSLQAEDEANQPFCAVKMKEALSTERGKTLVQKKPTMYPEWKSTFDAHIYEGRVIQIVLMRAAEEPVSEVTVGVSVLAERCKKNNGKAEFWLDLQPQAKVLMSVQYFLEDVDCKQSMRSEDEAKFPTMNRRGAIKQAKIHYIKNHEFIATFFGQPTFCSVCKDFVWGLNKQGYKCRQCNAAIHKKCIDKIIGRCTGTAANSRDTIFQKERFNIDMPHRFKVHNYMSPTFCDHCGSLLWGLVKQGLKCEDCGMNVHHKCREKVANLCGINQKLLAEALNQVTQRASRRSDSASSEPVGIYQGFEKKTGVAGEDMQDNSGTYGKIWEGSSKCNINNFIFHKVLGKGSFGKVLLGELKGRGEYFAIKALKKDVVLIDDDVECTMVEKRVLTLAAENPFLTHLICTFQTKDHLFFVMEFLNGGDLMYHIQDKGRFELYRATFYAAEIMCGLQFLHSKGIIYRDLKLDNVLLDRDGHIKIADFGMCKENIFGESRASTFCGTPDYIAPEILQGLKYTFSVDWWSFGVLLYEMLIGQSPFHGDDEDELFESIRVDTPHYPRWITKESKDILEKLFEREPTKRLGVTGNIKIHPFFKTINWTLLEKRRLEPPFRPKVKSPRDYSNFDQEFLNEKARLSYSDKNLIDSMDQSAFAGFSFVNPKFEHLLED
Chain of Transforming protein RhoA (Homo sapiens) (P61586 whole entry): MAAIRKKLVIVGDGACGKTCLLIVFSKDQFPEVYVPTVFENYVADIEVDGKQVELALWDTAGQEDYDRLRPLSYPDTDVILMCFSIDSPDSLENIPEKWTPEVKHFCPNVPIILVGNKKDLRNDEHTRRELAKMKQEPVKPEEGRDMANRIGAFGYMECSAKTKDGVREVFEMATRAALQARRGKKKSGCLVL
Chain of PKC alpha and beta-2 (Homo sapiens) (P05771 whole entry, looked up): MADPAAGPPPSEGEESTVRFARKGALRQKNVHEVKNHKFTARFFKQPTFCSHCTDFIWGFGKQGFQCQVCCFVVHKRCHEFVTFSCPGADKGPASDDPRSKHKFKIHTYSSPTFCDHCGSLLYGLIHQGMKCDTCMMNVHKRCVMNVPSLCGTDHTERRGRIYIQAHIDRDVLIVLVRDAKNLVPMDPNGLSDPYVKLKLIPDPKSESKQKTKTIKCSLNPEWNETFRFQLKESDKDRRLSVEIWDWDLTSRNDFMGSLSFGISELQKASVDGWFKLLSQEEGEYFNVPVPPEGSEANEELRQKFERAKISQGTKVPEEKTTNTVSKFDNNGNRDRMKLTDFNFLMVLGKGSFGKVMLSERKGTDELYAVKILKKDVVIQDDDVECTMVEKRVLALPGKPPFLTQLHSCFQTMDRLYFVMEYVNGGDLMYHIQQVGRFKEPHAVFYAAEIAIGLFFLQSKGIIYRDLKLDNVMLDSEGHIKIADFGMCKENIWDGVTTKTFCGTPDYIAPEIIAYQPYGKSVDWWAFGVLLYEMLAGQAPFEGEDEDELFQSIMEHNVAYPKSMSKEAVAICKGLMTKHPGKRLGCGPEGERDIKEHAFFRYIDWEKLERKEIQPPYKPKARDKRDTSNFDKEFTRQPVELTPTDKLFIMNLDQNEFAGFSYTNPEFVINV
Chain of Protein kinase C iota type/zeta type (Homo sapiens) (P41743 whole entry, looked up): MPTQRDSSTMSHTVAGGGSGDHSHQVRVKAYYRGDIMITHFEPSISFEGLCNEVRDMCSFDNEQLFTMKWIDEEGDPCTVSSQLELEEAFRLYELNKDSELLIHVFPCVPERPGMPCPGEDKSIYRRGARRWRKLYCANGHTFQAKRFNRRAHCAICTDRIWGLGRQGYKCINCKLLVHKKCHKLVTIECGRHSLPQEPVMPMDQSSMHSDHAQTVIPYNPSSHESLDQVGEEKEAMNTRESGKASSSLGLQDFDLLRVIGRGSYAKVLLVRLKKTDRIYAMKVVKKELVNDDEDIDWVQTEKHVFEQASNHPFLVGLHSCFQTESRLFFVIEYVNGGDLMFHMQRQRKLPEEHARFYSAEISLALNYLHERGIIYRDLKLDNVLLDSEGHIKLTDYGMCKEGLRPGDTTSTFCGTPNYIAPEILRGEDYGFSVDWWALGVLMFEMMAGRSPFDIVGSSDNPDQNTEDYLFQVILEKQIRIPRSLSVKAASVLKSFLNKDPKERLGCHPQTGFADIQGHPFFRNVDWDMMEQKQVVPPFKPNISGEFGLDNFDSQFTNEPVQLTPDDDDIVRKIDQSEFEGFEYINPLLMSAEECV
Chain of Protein kinase C iota type/zeta type (Homo sapiens) (Q05513 whole entry, looked up): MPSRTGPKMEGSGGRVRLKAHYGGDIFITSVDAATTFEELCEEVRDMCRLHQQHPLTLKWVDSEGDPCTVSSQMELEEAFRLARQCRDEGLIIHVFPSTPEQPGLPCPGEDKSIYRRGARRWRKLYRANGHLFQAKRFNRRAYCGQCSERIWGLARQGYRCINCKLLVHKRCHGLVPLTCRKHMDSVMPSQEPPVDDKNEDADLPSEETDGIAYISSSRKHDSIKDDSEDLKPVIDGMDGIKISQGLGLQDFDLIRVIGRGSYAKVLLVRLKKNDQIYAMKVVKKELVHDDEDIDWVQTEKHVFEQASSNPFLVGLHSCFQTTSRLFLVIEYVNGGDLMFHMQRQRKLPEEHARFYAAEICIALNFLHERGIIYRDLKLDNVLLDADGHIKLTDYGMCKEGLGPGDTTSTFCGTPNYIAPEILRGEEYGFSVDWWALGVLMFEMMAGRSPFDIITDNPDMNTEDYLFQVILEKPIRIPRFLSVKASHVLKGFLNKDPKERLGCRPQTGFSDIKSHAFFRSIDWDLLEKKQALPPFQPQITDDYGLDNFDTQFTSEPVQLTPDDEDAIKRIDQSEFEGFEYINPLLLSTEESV

## COC(=O)c1ccc2[nH]c3ccccc3c2c1
HepG2 [1]
  IC50: 36.9 µM

## COc1c2ccoc2nc2c(OC)cccc12 [GAMMA-FAGARINE]
HepG2 [1]
  IC50: > 160 µM

## COC(=O)c1cc2c(cc1O)[nH]c1ccccc12 [MUKONIDINE]
HepG2 [1]
  IC50: > 160 µM

## O=Cc1cc2c(cc1O)[nH]c1cc(O)ccc12 [CLAUSINE O]
HepG2 [1]
  IC50: 32.8 µM

## CC(=O)c1c(O)c(C)c(O)c(Cc2c(O)c3c(c(C(=O)/C=C/c4ccccc4)c2O)OC(C)(C)C=C3)c1O
[2]
  inhibition: Active
[3]
  inhibition: Active

## COc1cc(=O)n(C)c2ccccc12
HepG2 [1]
  IC50: > 160 µM

## COc1ccc2c(c1)[nH]c1ccc(C=O)cc12 [CLAUSZOLINE K]
[4]
  IC50: 72.5 µM
HepG2 [1]
  IC50: 4.23 µM
HepG2 [5]
  growth inhibition (GI): Active
HepG2 [6]
  growth inhibition (GI): Active

## COc1ccc2c(c1)[nH]c1cc(O)c(C=O)cc12
HepG2 [1]
  IC50: 28.6 µM

## O=Cc1cc2c(cc1O)[nH]c1ccccc12 [MUKONAL]
HepG2 [1]
  IC50: 65.9 µM

## COc1c2ccccc2nc2occc12 [DICTAMNINE]
HepG2 [1]
  IC50: 55.2 µM

## Cc1cc2c([nH]c3ccccc32)c2c1OC(C)(C)C=C2 [GRINIMIBINE]
HepG2 [1]
  IC50: > 160 µM

## COc1ccc2c(c1)[nH]c1cc(OC)c(C=O)cc12 [LANSINE]
HepG2 [1]
  IC50: 102 µM

## COC(=O)c1cc2c(cc1OC)[nH]c1cc(OC)ccc12 [CLAUSZOLINE C]
HepG2 [1]
  IC50: > 160 µM

## COC(=O)c1cc(O)c2[nH]c3ccccc3c2c1 [CLAUSINE E]
MDA-MB-231
  IC50: 37.1 µM
HepG2 [7]
  Activity: Active
HepG2 [8]
  Activity: Active
[9]
  IC50: 16.9 µM
[10]
  Activity: Non-toxic
[11]
  Activity: Non-toxic
[12]
  inhibition: Active
HepG2 [13]
  Activity: Active
[14]
  inhibition: Dose-dependent effect
[15]
  inhibition: inactive
[16]
  Activity: Non-toxic
[17]
  inhibition: inactive
[4]
  IC50: > 160 µM
HepG2 [18]
  Activity: inactive
HepG2 [19]
  Activity: inactive
[20]
  inhibition: inactive
HepG2 [21]
  Activity: 13.1%
HepG2 [1]
  IC50: 15.8 µM
HeLa
  IC50: 13.3 µM
HepG2 [22]
  Activity: Active
HepG2 [23]
  Activity: 55.9%
HepG2 [5]
  growth inhibition (GI): Active
HepG2 [24]
  Activity: 31.1%
[25]
  inhibition: inactive
T98G
  IC50: 71.6 µM
[26]
  inhibition: inactive
HepG2 [6]
  growth inhibition (GI): Active
HepG2 [27]
  Activity: inactive
[28]
  Activity: Non-toxic

## COc1ccc2c(c1)[nH]c1cc(OC)c(C(=O)O)cc12 [CLAUSINE K]
HepG2 [1]
  IC50: 24.4 µM

## O=Cc1cc(O)c2[nH]c3ccc(O)cc3c2c1
HepG2 [1]
  IC50: 135 µM

## Cc1cc2c(cc1O)[nH]c1ccccc12
[4]
  IC50: 85.2 µM
HepG2 [1]
  IC50: 14.4 µM

Reference: ChEMBL document CHEMBL1926516, “Induction of cell cycle arrest by the carbazole alkaloid Clauszoline-I from Clausena vestita D. D. Tao via inhibition of the PKCδ phosphorylation” (Eur J Med Chem, 2012)
